Data taken from US20230322723A1, “COMPOUNDS FOR SUPPRESSING EGFR MUTANT CANCER AND PHARMACEUTICAL USE THEREOF” (J2H BIOTECH INC., priority 2020, published 2023).

How the values were obtained:
[1] = Pharmacokinetic evaluation after single oral administration to ICR mice; assay type: in vivo; conditions: mouse, ICR mice, single oral dose 5 mg/kg, plasma; for AUC(0-t): read-out: AUC0-24
Description: Pharmacokinetic tests for the compounds of the present invention were conducted as below. After a single oral administration of the compound of the present invention to ICR mice, the concentration of the compound over time was followed up and analyzed.
The compound of the present invention was suspended in 10% DMSO/90% (30% HPbCD aqueous solution) and orally administered to mice at a dose of 5 mg/kg. Blood was collected at a fixed time and plasma was separated. Drug analysis was performed using HPLC (XBridge column C18, Waters, mobile phase 0.1% formic acid:acetonitrile (30:70, %/%)) and MS/MS (ESI positive, MRM). Mouse blood plasma and each commercially available standard solution were mixed at a ratio of 9:1 to prepare and calibrate at concentrations of […] 5,000 ng/mL. In addition, the preparation of QC samples was prepared by mixing the mouse blood plasma and the standard solution for QC at a ratio of 9:1, and prepared to be concentrations of 100, 750 and 2,500 ng/mL. 100 μL of the plasma sample was transferred to a centrifugation tube, and 10 μL of the internal standard solution and 300 μL of methanol were added, followed by mixing for about 30 seconds for pretreatment. The tube was centrifuged at 3,000×g (4° C.) for about 5 minutes, and the supernatant was taken and transferred to an LC vial and injected into the instrument. Then, the concentration of the compound in mouse plasma was quantified by applying a previously validated assay. For pharmacokinetic parameters, the program WinNonlin 5.2 (Pharsight, USA) was used. AUC0-t, AUC0-∞, Cmax, Tmax, and t1/2 were calculated by Noncompartment modeling (best fit). The pharmacokinetic parameter results were expressed as the mean (Mean) and standard deviation (SD), and were statistically processed using the SPSS program (Statistical Package for the Social Sciences, 10.0K, USA).

[2] = tested on: EGFR^del19+T790M+C797S; test: EGFR protein degradation test (Western blot) in Ba/F3 cells expressing mutant EGFR del19+T790M+C797S (DTC); assay type: cell-based; conditions: compounds at 0.1 μM and 1 μM, 24 hours, Western blot with EGFR antibody
Summary of the method: (§1)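 Ba/F3 cells expressing wild-type EGFR, del19+T790M+C797S or L858R+T790M+C797S EGFR were treated with compound at 0.1 μM and 1 μM for 24 h. Lysates (30 μg) were analysed by SDS-PAGE and EGFR Western blot, with bands quantified densitometrically.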

[3] = target: T1, EGFR^L858R+T790M+C797S (Homo sapiens, UniProt P00533, C797S/L858R/T790M); test: EGFR protein degradation test (Western blot) in Ba/F3 cells expressing mutant EGFR L858R+T790M+C797S (LTC); assay type: cell-based; conditions: compounds at 0.1 μM and 1 μM, 24 hours, Western blot with EGFR antibody
T1 construct: expressed in transfected cells; host or cells: Ba/F3
Summary of the method: as §1

T1 sequence (P00533 25-1210 T790M/C797S/L858R): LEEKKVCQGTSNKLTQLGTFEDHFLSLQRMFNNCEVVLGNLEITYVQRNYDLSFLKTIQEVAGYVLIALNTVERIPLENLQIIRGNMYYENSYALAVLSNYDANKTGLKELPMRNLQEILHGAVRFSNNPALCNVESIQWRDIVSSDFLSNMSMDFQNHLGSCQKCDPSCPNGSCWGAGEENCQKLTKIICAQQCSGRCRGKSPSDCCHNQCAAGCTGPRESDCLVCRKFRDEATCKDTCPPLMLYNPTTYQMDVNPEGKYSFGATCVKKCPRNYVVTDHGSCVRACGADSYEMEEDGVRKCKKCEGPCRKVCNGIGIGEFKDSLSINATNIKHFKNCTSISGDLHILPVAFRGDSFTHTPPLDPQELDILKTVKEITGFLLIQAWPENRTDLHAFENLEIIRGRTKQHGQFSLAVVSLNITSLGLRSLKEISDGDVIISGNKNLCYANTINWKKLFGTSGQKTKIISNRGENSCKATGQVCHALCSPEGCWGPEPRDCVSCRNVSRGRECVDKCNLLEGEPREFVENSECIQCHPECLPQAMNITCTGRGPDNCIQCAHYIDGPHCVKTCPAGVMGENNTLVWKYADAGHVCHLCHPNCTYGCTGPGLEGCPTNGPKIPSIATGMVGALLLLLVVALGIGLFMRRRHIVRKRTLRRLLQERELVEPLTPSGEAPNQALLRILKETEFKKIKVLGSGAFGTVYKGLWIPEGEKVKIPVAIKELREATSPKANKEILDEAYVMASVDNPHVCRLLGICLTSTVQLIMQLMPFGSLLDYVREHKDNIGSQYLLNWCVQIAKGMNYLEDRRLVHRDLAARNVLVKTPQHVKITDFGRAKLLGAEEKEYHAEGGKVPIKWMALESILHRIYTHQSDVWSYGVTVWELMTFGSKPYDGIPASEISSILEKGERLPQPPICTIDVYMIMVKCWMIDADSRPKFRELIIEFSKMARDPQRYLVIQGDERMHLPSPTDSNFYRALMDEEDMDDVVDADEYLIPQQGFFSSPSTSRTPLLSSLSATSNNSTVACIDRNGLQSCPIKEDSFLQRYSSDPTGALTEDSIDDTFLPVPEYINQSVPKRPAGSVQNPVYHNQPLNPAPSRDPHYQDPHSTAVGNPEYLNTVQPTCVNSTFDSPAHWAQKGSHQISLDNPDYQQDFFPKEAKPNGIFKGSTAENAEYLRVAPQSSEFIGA

half-life [1] [h] | AUC(0-t) [1] [ng·h/mL] | LTC (EGFR^L858R+T790M+C797S) protein degradation [3] | Compound | DTC (EGFR^del19+T790M+C797S) protein degradation [2]
6.54 | 553 | ++ (Protein degradation > 80%) | COc1cc(N2CCC(N3CCN(CC(=O)N[C@H](C(=O)N4C[C@H](O)C[C@@H]4C(=O)NCc4ccc(-c5scnc5C)cc4)C(C)(C)C)CC3)CC2)ccc1Nc1ncc(Cl)c(Nc2ccccc2N(C)S(C)(=O)=O)n1 [Compound 11, (2R,4R)-1-((S)-2-(2-(4-(1-(4-((5-chloro-4-((2-(N-methylmethylsulfonamido)phenyl)amino)pyrimidin-2-yl)amino)-3-methoxyphenyl)piperidin-4-yl)piperazin-1-yl)acetamido)-3,3-dimethylbutanoyl)-4-hydroxy-N-(4-(4-methylthiazol-5-yl)benzyl)pyrrolidin-2-carboxamide] | ++ (Protein degradation > 80%)
8.99 | 42 | ++ (Protein degradation > 80%) | COc1cc(N2CCC(N3CCN(CCC(=O)N[C@H](C(=O)N4C[C@H](O)C[C@@H]4C(=O)NCc4ccc(-c5scnc5C)cc4)C(C)(C)C)CC3)CC2)ccc1Nc1ncc(Cl)c(Nc2ccccc2N(C)S(C)(=O)=O)n1 [Compound 20, (2R,4R)-1-((S)-2-(3-(4-(1-(4-((5-chloro-4-((2-(N-methylmethylsulfonamido)phenyl)amino)pyrimidin-2-yl)amino)-3-methoxyphenyl)piperidin-4-yl)piperazin-1-yl)propanamido)-3,3-dimethylbutanoyl)-4-hydroxy-N-(4-(4-methylthiazol-5-yl)benzyl)pyrrolidin-2-carboxamide] | ++ (Protein degradation > 80%)

Further lines, the molecule ahead of its results:

Compound | half-life [1] [h] | AUC(0-t) [1] [ng·h/mL] | LTC (EGFR^L858R+T790M+C797S) protein degradation [3] | DTC (EGFR^del19+T790M+C797S) protein degradation [2]
COc1cc(N2CCC(N3CCN(CC(=O)Nc4cccc5c4CN(C4CCC(=O)NC4=O)C5=O)CC3)CC2)ccc1Nc1ncc(Cl)c(Nc2ccccc2N(C)S(C)(=O)=O)n1 (centres unmarked) [Compound 22, 2-(4-(1-(4-((5-chloro-4-((2-(N-methylmethylsulfonamido)phenyl)amino)pyrimidin-2-yl)amino)-3-methoxyphenyl)piperidin-4-yl)piperazin-1-yl)-N-(2-(2,6-dioxopiperidin-3-yl)-1-oxoisoindolin-4-yl)acetamide] | 12.4 | 47 | ++ (Protein degradation > 80%) | ++ (Protein degradation > 80%)
COc1cc(N2CCC(CN3CCN(CC(=O)Nc4cccc5c4CN(C4CCC(=O)NC4=O)C5=O)CC3)CC2)ccc1Nc1ncc(Cl)c(Nc2ccccc2N(C)S(C)(=O)=O)n1 (centres unmarked) [Compound 24, 2-(4-((1-(4-((5-chloro-4-((2-(N-methylmethylsulfonamido)phenyl)amino)pyrimidin-2-yl)amino)-3-methoxyphenyl)piperidin-4-yl)methyl)piperazin-1-yl)-N-(2-(2,6-dioxopiperidin-3-yl)-1-oxoisoindolin-4-yl)acetamide] | 12.4 | 17 | ++ (Protein degradation > 80%) | ++ (Protein degradation > 80%)
COc1cc(N2CCN(CC3CCN(CC(=O)Nc4cccc5c4CN(C4CCC(=O)NC4=O)C5=O)CC3)CC2)ccc1Nc1ncc(Cl)c(Nc2ccccc2N(C)S(C)(=O)=O)n1 (centres unmarked) [Compound 26, 2-(4-((4-(4-((5-chloro-4-((2-(N-methylmethylsulfonamido)phenyl)amino)pyrimidin-2-yl)amino)-3-methoxyphenyl)piperazin-1-yl)methyl)piperidin-1-yl)-N-(2-(2,6-dioxopiperidin-3-yl)-1-oxoisoindolin-4-yl)acetamide] | 9.29 | 32 | ++ (Protein degradation > 80%) | ++ (Protein degradation > 80%)
